Laboratory results published in PMC4766629, “Biochemical and functional characterization of Plasmodium falciparum DNA polymerase δ” (Malaria Journal, 2016).
Converted amounts (≈) assume the structure as drawn. Like-named read-outs stand apart in the source and are kept apart here.

How the values were obtained:
[1] = biological target: T1, PfPolδ-cat (Plasmodium falciparum, UniProt P30315); test: DNA polymerase assay, inhibitory effects of compounds on PfPolδ-cat activity; format: biochemical
T1 construct: The 3285-bp full-length PfPolδ-cat of P. falciparum K1 strain was successfully amplified and cloned; thioredoxin (N); His6 (C); made in house; host or cells: Escherichia coli LMG194
T1 sequence (P30315 whole entry): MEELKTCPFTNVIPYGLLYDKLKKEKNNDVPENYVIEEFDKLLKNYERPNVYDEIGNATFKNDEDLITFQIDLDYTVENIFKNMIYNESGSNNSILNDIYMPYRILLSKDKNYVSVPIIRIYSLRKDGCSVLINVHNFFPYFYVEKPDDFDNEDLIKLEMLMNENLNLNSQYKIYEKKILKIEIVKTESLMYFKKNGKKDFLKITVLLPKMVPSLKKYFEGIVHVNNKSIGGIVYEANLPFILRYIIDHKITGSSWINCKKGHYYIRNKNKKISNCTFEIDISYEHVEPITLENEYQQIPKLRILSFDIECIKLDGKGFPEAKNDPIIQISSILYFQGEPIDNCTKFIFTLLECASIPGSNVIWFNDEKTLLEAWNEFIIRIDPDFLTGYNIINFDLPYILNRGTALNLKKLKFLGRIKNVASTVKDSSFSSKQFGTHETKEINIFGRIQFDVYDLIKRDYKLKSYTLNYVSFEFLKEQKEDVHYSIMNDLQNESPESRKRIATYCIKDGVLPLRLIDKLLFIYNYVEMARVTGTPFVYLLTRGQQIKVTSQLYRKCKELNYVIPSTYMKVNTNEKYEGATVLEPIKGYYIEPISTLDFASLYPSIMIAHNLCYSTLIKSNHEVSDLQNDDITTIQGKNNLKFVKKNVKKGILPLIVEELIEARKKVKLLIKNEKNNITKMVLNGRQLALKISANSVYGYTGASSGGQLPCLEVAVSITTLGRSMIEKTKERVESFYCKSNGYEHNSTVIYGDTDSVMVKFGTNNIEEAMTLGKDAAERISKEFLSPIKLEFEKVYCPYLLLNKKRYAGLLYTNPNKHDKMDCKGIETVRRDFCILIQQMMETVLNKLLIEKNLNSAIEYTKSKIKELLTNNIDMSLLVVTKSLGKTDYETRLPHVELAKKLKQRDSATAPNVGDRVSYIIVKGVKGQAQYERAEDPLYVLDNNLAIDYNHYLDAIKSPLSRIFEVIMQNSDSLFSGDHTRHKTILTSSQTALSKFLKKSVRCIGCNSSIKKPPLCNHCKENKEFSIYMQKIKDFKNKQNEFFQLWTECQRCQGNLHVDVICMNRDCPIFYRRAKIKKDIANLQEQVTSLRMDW
Description: DNA polymerase activity was assayed using activated calf thymus DNA (CT-DNA) (Sigma-Aldrich, MA, USA) as substrate. DNA polymerase assay was conducted in a 50-μl reaction mixture containing 10 μg of activated CT-DNA, 20 mM potassium phosphate buffer pH 8, 10 mM MgCl2, 2 mM DTT, 10 μg BSA, 50 μM each of dGTP, dATP and dCTP, 1 μM dTTP, 2.5 μM [α-^32P]dTTP (800 Ci/mmol; PerkinElmer, MA, USA), and 42 nM PfPolδ-cat. After incubation for 1 h at 37 °C, the reactions were terminated by adding a 250-μl mixture of 20 mM EDTA, 0.1 mg/ml BSA and 100 μl of 50 % trichloroacetic acid (TCA), followed by sedimentation. The precipitate was then washed twice with 1 % TCA and [^32P]dTMP incorporation was measured in a 1450 MicroBeta® Trilux Liquid Scintillation Counter (Perkin Elmer). One unit of DNA polymerase activity is defined as the amount of enzyme that catalyzes the incorporation of 1 nmol of dTMP into DNA in 1 h at 37 °C.
Inhibitory activity of 11 compounds consisting of substrate and nucleotide analogs and potential active site occupiers of PfPolδ-cat were compared with known Pol δ inhibitors, aphidicolin and N-ethylmaleimide (NEM). Stock solution (6 mM) of aphidicolin was prepared in dimethylsulfoxide (DMSO) and that of NEM (400 mM) in absolute ethanol. Stock solutions (10 mM) of N^2-(4-butylphenyl)-2′-deoxyguanosine 5′-triphosphate (BuPdGTP), N^2-(4-butylphenyl)- 2′-deoxyguanosine 5′-(P^2,P^3-carbonyltriphosphonate) (BuPdGMPPCOP), N^2-ethyl-2′-deoxyguanosine 5′-[…] (EtdGTP), N^2-hexyl-2′-deoxyguanosine 5′-triphosphate (HexdGTP) and Acyclovir triphosphate (ACV-TP) were prepared in sterile distilled water, while those of 2-amino-4-chloro-6-(3,4-dichloroanilino)pyrimidine, 2-amino-4-chloro-6-(3,5-dichloroanilino)pyrimidine, N^2-(3,4-dichlorobenzyl)guanine (DCBG), N^2-(3-fluoro,4-chlorobenzyl)guanine, 3-(4-hydroxybutyl)-6-(3-ethyl-4-methylanilino)uracil (HB-EMAU), and 7-acetoxypentyl-(3,4-dichlorobenzyl)guanine (7-acetoxypentyl-DCBG) were prepared in DMSO. All stock solutions were stored at −20 °C until used. Test concentrations of compounds were prepared by diluting stock solution with 10 mM Tris–HCl pH 8.0 and evaluated in triplicate. Compounds were added directly to the reaction mixtures except for NEM that was pre-incubated with enzyme for 30 min on ice before addition to the reaction mixture. Polymerase activity assays were conducted as described above.

[2] = test system: Plasmodium falciparum K1 strain; test: Inhibition of intra-erythrocytic P. falciparum growth in culture (SYBR Green I-based assay); format: cell-based; details: K1 strain (chloroquine- and pyrimethamine-resistant), in vitro growth, triplicate
Description: Plasmodium falciparum strain K1, a chloroquine- and pyrimethamine-resistant strain from Thailand [28] was cultivated in RPMI 1640 medium (Invitrogen™, CA, USA) supplemented with 10 % human serum and human red blood cell (RBC) at 37 °C under an atmosphere of 5 % CO2. Plasmodium falciparum cultures containing mostly trophozoite and schizont stages were harvested when parasitaemia was >10 % by centrifugation at 500×g for 10 min at 25 °C.
Plasmodium falciparum K1 strain was synchronized at ring stage using 5 % D-sorbitol treatment and then mixed with culture medium containing RPMI 1640 medium supplement with 10 % human serum. Twofold serial dilutions of each test compound were evaluated in triplicate. Parasite growth was determined by a SYBR Green I-based assay. Dose–response curves and IC50 values were obtained using SigmaPlot 12.0.

[3] = design: method as in PMID 21684746; details: IP dose of 60 mg/kg; cited from earlier work
[4] = design: method as in PMID 21684746; details: potent antibiotic; cited from earlier work
[5] = recombinant PfPolδ-cat DNA polymerase activity, activated CT-DNA, 1 h at 37 °C, triplicate, read-out: IC50 PfPolδ-cat

| IC50 ([2]; Plasmodium falciparum) [µM] | Compound | IC50 [1, 5] [µM] | also measured |
| --- | --- | --- | --- |
| 8.8 ± 0.5 | O=c1[nH]c(NCc2ccc(Cl)c(Cl)c2)nc2nc[nH]c12 [DCBG, N^2-(3,4-dichlorobenzyl)guanine] |  |  |
| 347 ± 8.3 | Nc1nc2c(ncn2COCCOP(=O)(O)OP(=O)(O)OP(=O)(O)O)c(=O)[nH]1 [Acyclovir triphosphate] |  |  |
|  | CCCCc1ccc(Nc2nc3c(ncn3C3CC(O)C(COP(=O)(O)OP(=O)(O)C(=O)P(=O)(O)O)O3)c(=O)[nH]2)cc1 (centres unmarked) [BuPdGMPPCOP, N^2-(4-butylphenyl)-2′-deoxyguanosine 5′-(P^2,P^3-carbonyltriphosphonate)] |  | IC50 PfPolδ-cat (Inactive = <20 % inhibition at 100 μM) ([1]; recombinant PfPolδ-cat DNA polymerase activity, 100 μM compound): Inactive^a; IC50 [2]: 173 ± 2.7 µM |
| 7.4 ± 0.3 | O=c1[nH]c(NCc2ccc(Cl)c(F)c2)nc2nc[nH]c12 [N^2-(3-fluoro,4-chlorobenzyl)guanine] |  |  |
|  | C[C@@]1(CO)[C@H](O)CC[C@@]2(C)[C@H]1CC[C@H]1C[C@@H]3C[C@@]12CC[C@]3(O)CO [aphidicolin, reference compound] |  | IC50 [1]: 11.8 µM |
|  | CC(=O)OCCCCCn1cnc2nc(NCc3ccc(Cl)c(Cl)c3)[nH]c(=O)c21 [7-acetoxypentyl-DCBG, 7-acetoxypentyl-(3,4-dichlorobenzyl)guanine] | 55 ± 3.4 | mice survived after treatment [3]: 80%; MIC [4]: 1.25 µg/mL (≈ 2.85 µM); IC50 [2]: 4.1 ± 0.2 µM |
| 86.4 ± 0.2 | CCCCCCNc1nc2c(ncn2[C@H]2C[C@H](O)[C@@H](COP(=O)(O)OP(=O)(O)OP(=O)(O)O)O2)c(=O)[nH]1 [HexdGTP, N^2-hexyl-2′-deoxyguanosine 5′-triphosphate] |  |  |

| Compound | IC50 ([2]; Plasmodium falciparum) [µM] | IC50 [1, 5] [µM] | also measured |
| --- | --- | --- | --- |
| CCCCc1ccc(Nc2nc3c(ncn3[C@H]3C[C@H](O)[C@@H](COP(=O)(O)OP(=O)(O)OP(=O)(O)O)O3)c(=O)[nH]2)cc1 [BuPdGTP, N^2-(4-butylphenyl)-2′-deoxyguanosine 5′-triphosphate] | 85.6 ± 3.7 | 38 ± 1.7 |  |
| Nc1nc(Cl)cc(Nc2cc(Cl)cc(Cl)c2)n1 [2-amino-4-chloro-6-(3′, 5′-dichloroanilino)pyrimidine] | 34.4 ± 0.4 | 185 ± 7.7 |  |
| Nc1nc(Cl)cc(Nc2ccc(Cl)c(Cl)c2)n1 [2-amino-4-chloro-6-(3′,4′-dichloroanilino)pyrimidine] | 3.8 ± 0.3 | 104 ± 5.6 |  |
